Experiments:
Mcl-1 protein = molecular target: T1, Mcl-1 protein (Homo sapiens, UniProt Q07820); test: TR-FRET binding assay with Bid-Dy647 peptide; conditions: 10 nM Mcl-1, 10 nM Bid-Dy647
T1 construct: human Mcl-1 (residues 171–323); His tag (pHis-TEV vector) (N, cleaved yes); made in house; host or cells: E. coli BL21 (DE3)
Experimental: TR-FRET was performed using black 384-well plates in an Envision Multilabel plate reader (Perkin Elmer Life Sciences). To each well, a mixture of 10 nM Bid-Dy647 peptide (79–99), 10 nM Mcl-1 protein, and Europium-anti-His antibody were added to a final volume of 25 μl in the assay buffer (20 mM potassium phosphate, pH 7.5; 50 mM NaCl, 1 mM EDTA and 0.05% Pluronic F68). The TR-FRET signals were measured with an Envision Multilabel plate reader after 2 h of incubation. (Ex 340 nm, Em615 nm and Em665 nm) and expressed as FRET signal ratio (F665 nm/[…] * 104)

Bcl-2 = molecular target: T2, Bcl-2 (Homo sapiens, UniProt P10415, DEL35-91/INS34DVEENRTEAPEGTESE); test: FP-based competitive binding assay with FAM-Bid; conditions: FP
T2 construct: His tag (pHis-TEV vector) (N, cleaved yes); made in house; host or cells: E. coli BL21 (DE3)
Experimental: (§1) FP-based binding assays were developed and optimized to determine the binding affinities of inhibitors to the recombinant Mcl-1, Bcl-2, Bcl-xL, and Bfl-1, proteins. […] The fluorescent Bid probe was fixed at 2 nM for all assays, except for Bfl-1, where 1 nM was used. 5 μL of the tested compound in DMSO and 120 μL of protein/probe complex in the assay buffer were added to assay plates (Corning #3792), incubated at room temperature for 3 h, and the polarization values (mP) were measured at an excitation wavelength of 485 nm and an emission wavelength of 530 nm using the plate reader Synergy H1 Hybrid, BioTek. IC50 values were determined by nonlinear regression fitting of the competition curves (GraphPad Prism 6.0 Software). The Ki values were calculated as described previously.
(§2) 1. List of compounds purchased from vendors
(§3) Compound s 5, 6, 7, 8 and S3, S4, S5, S6 S7, S8, S9, S10, S17 were purchased from […]
(§4) Compound s 9, 10, 11 and S11, S12, S13 were purchased from I nterbioscreen […]
(§5) His-tagged proteins containing human Mcl-1 (residues 171–323), the isoform 2 construct of the human Bcl-2 [Bcl2-2 construct for protein production starts with the Bcl2 sequence of 1-34 a a, followed by the Bcl-xL seq uence of 35-50 aa, and ends with the Bcl-2 sequenc e of 92-202aa.], Bcl-xL (Human Bcl-xL protein, which has an internal deletion for the 45 -85 amino acid residues and a C -terminal truncation for the amino acid residues 212-233), and Bf l-1 (residues 1-151), were expres sed from the pHis -TEV vector (a modified pET vector) in E. coli BL21 (DE3) cells. Cells were grown at 37 °C in 2×YT containing antibiotics to an OD600 density of 1.5, 1 and 0.8 for Mcl-1, Bcl-xL and Bcl-2 respectively. Protein expression wa s induced by 0 .4 mM IPTG at 20 °C overnight for all proteins except for Bf l-1 which was e xpressed at 3 7 °C for four hours . Cells were lysed in 20 mM HEPES pH 7.5, 200 mM NaCl, 0.1% βME with Leupeptin/Aprotinin (Mcl-1), 25mM Tris pH 8.5, 200mM NaCl (Bcl-2), 50mM Tris pH 7.5, 200 mM NaCl (Bcl-xL) and 50 mM Tris pH 8, 500 mM NaCl, 0. 1% βME with Leupeptin/Aprotinin (Bf l-1). All

Bfl-1 = molecular target: T3, Bfl-1 (Homo sapiens, UniProt Q16548); test: FP-based competitive binding assay with FAM-Bid; conditions: for IC50: Bfl-1
T3 construct: Bf l-1 (residues 1-151); His tag (pHis-TEV vector) (N, cleaved yes); made in house; host or cells: E. coli BL21 (DE3)
T3 sequence (Q16548 1-151): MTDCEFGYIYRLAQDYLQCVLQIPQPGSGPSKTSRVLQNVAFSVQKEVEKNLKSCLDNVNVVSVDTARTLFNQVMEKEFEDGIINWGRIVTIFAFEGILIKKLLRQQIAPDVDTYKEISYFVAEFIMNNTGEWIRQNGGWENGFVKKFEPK
Experimental: as §1, §2, §3, §4, §5

Bcl-xL = molecular target: T4, Bcl-xL (Homo sapiens, UniProt Q07817, DEL45-85); test: FP-based competitive binding assay with FAM-Bid; conditions: for IC50 / Ki: FP
T4 construct: His tag (pHis-TEV vector) (N, cleaved yes); made in house; host or cells: E. coli BL21 (DE3)
Experimental: as §1, §2, §3, §4, §5

T1 sequence (Q07820 171-323): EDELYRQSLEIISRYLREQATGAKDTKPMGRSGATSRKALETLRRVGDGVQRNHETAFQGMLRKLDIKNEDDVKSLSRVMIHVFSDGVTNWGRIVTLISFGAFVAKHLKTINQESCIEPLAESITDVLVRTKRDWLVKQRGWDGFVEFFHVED
T4 sequence (Q07817 with tags, fused parts or gaps DEL45-85 limits assumed): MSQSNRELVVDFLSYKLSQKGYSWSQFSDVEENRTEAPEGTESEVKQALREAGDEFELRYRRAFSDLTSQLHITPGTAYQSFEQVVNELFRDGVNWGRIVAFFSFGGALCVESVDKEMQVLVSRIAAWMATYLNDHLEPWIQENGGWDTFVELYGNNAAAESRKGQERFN
T2 sequence (P10415 with tags, fused parts or gaps INS34DVEEN/V35R/G36T/A37E/P40E/DEL42-87/P88T/V89E/P90S/P91E): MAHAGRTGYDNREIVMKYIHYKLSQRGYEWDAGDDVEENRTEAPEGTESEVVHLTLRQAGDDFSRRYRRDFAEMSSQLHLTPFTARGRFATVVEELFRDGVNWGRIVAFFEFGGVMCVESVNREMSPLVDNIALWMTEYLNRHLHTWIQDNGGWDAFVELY

Row | Structure (SMILES) | IC50 (Mcl-1 protein) | IC50 (Bcl-2) | Ki (Bcl-2) | IC50 (Bfl-1) | Ki (Bfl-1; FP) | fold lower binding affinity to Bfl-1 than to Mcl-1 (Bfl-1; ratio of Ki) | IC50 (Bcl-xL) | Ki (Bcl-xL) | fold lower binding affinity to Bcl-xL than to Mcl-1 (Bcl-xL; ratio of Ki) | binding to Bfl-1 compared with Mcl-1 (Bfl-1; FP)
1 | O=C(CSc1nnc(-c2ccco2)c(-c2ccco2)n1)Nc1cccc(C(F)(F)F)c1 [Compound 39] | 7.1 ± 2.8 µM | > 100 µM | > 25 µM | 75.9 ± 6.2 µM | 10.4 µM | 8 fold | > 100 µM | > 20 µM | > 17 fold | 
2 | c1ccc(CCCCSc2nnc(-c3ccco3)c(-c3ccco3)n2)cc1 [Compound 44] | 2.5 ± 0.1 µM | > 100 µM | > 25 µM | 5.1 ± 0.1 µM | 0.7 ± 0.1 µM |  | > 100 µM | > 20 µM |  | 
3 | O=C(CSc1nnc(-c2ccco2)c(-c2ccco2)n1)Nc1ccccc1 [Compound 19] | 11.9 ± 3.7 µM | > 100 µM | > 25 µM | 35.6 ± 8.6 µM | 4.9 µM |  | > 100 µM | > 20 µM |  | lower binding to Bfl-1 in comparison to Mcl-1

Reference: PMC6033896, “Discovery of Mcl-1 inhibitors from integrated high throughput and virtual screening” (Scientific Reports, 2018)
